Measured values taken from ChEMBL document CHEMBL5257081, “Discovery of novel PROTACs based on multi-targeted angiogenesis inhibitors” (Bioorg Med Chem Lett, 2023).
Blank lines part the entries; values can stand above or below the compound they belong to. Activity calls are given as the source filed them. The rule behind the calls is not given here.

What was measured:
[1] = biological target: T1, von Hippel-Lindau disease tumor suppressor/Vascular endothelial growth factor receptor 2 (Homo sapiens, UniProt P35968+P40337); assay: Protac activity at VHL E3 ubiquitin ligase/VEGFR-2 in human EA.hy 926 cells assessed as degradation of VEGFR-2 protein at […]; type: cell-based
Target sequence in this assay (P35968 20-1356 limits assumed): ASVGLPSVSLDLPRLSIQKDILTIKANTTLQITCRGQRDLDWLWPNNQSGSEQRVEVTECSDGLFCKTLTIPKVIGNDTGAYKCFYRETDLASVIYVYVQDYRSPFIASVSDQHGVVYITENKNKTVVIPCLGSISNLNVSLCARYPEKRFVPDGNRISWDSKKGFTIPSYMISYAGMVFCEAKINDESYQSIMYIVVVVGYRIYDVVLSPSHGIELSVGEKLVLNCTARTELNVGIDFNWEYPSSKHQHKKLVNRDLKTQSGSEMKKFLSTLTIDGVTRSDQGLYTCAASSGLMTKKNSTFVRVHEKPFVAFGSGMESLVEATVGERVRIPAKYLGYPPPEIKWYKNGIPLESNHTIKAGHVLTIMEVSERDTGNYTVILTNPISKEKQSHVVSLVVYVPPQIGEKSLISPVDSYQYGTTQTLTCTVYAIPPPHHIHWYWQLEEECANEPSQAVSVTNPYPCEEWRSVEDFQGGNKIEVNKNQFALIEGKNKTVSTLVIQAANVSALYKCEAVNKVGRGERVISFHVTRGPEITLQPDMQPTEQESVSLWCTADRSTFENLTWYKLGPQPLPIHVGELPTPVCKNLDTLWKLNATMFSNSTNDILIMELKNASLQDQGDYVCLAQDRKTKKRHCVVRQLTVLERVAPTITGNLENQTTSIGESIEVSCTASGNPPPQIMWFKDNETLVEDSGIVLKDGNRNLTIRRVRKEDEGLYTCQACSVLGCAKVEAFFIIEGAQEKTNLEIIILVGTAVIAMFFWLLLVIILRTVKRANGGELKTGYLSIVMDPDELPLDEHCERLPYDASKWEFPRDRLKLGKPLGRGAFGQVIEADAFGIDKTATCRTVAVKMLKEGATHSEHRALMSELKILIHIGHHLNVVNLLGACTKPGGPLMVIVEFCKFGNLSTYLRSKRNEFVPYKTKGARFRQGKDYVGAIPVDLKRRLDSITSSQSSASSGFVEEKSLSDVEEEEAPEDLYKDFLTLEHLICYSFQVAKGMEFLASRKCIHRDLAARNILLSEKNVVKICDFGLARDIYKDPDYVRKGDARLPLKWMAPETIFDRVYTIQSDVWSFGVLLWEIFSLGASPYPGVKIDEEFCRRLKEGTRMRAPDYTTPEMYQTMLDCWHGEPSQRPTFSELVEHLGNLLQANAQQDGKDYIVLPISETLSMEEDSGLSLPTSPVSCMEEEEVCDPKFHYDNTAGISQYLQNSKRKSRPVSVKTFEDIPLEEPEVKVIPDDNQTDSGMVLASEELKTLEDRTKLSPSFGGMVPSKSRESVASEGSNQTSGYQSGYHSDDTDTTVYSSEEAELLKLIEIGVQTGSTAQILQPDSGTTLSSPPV
Target sequence in this assay (P40337 whole entry partner): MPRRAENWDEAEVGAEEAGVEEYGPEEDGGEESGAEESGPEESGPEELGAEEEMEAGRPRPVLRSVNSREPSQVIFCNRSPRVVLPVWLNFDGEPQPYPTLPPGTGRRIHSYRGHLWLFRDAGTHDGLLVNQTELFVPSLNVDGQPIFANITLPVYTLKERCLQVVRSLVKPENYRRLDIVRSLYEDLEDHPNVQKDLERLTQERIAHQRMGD

EA.hy 926 [2] = assay: Cytotoxicity against human EA.hy 926 cells; type: toxicity, cell-based
HEK293 = assay: Cytotoxicity against human HEK293 cells assessed as inhibition of cell growth; type: toxicity, cell-based
[3] = Antiproliferative activity against human EA.hy 926 cells assessed as inhibition of cell growth; type: toxicity, cell-based
[4] = biological target: T2, von Hippel-Lindau disease tumor suppressor/Serine/threonine-protein kinase B-raf (Homo sapiens) (UniProt P15056+P40337); assay: Protac activity at E3 ubiquitin ligase/BRAF in human MDA-MB-231 cells assessed as degradation of BRAF protein; type: cell-based
T2 sequence (P15056 whole entry, looked up): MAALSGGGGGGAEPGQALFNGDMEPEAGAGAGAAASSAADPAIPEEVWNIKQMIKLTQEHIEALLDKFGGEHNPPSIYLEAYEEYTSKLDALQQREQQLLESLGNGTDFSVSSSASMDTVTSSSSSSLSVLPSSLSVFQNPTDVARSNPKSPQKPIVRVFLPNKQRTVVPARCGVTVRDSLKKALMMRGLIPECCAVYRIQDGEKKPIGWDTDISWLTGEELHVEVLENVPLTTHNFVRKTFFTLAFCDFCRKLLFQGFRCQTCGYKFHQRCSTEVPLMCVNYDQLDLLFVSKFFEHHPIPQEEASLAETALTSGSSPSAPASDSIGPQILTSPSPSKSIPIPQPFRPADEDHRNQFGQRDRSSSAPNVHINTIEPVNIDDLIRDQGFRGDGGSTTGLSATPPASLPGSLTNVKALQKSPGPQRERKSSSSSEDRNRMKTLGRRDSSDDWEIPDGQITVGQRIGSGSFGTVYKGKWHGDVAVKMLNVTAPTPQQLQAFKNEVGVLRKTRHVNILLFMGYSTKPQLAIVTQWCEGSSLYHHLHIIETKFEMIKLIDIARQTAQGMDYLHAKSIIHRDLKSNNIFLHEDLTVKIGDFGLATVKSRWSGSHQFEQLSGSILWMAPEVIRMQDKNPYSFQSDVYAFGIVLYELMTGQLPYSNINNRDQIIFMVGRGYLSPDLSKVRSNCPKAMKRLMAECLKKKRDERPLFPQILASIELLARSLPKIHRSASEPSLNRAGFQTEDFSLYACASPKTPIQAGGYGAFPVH
T2 sequence (P40337 whole entry, looked up): as the sequence (P40337 whole entry partner) above

A549 = assay: Antiproliferative activity against human A549 cells assessed as inhibition of cell growth; type: functional, cell-based
MDA-MB-453 = assay: Antiproliferative activity against human MDA-MB-453 cells assessed as inhibition of cell growth; type: functional, cell-based
[5] = biological target: T2, von Hippel-Lindau disease tumor suppressor/Serine/threonine-protein kinase B-raf (Homo sapiens); assay: Protac activity at E3 ubiquitin ligase/BRAF in human HepG2 cells assessed as degradation of BRAF protein; type: cell-based
[6] = biological target: T2, von Hippel-Lindau disease tumor suppressor/Serine/threonine-protein kinase B-raf (Homo sapiens); assay: Protac activity at E3 ubiquitin ligase/BRAF in human EA.hy 926 cells assessed as degradation of BRAF protein at 10 to 60 uM incubated for 48 hrs by western blot assay; type: cell-based; settings: dose 10-60 µM
[7] = biological target: T1, von Hippel-Lindau disease tumor suppressor/Vascular endothelial growth factor receptor 2; assay: Protac activity at VHL E3 ubiquitin ligase/VEGFR-2 (unknown origin) assessed as […] by ADP-Glo Kinase assay
Target sequence in this assay (P35968 whole entry): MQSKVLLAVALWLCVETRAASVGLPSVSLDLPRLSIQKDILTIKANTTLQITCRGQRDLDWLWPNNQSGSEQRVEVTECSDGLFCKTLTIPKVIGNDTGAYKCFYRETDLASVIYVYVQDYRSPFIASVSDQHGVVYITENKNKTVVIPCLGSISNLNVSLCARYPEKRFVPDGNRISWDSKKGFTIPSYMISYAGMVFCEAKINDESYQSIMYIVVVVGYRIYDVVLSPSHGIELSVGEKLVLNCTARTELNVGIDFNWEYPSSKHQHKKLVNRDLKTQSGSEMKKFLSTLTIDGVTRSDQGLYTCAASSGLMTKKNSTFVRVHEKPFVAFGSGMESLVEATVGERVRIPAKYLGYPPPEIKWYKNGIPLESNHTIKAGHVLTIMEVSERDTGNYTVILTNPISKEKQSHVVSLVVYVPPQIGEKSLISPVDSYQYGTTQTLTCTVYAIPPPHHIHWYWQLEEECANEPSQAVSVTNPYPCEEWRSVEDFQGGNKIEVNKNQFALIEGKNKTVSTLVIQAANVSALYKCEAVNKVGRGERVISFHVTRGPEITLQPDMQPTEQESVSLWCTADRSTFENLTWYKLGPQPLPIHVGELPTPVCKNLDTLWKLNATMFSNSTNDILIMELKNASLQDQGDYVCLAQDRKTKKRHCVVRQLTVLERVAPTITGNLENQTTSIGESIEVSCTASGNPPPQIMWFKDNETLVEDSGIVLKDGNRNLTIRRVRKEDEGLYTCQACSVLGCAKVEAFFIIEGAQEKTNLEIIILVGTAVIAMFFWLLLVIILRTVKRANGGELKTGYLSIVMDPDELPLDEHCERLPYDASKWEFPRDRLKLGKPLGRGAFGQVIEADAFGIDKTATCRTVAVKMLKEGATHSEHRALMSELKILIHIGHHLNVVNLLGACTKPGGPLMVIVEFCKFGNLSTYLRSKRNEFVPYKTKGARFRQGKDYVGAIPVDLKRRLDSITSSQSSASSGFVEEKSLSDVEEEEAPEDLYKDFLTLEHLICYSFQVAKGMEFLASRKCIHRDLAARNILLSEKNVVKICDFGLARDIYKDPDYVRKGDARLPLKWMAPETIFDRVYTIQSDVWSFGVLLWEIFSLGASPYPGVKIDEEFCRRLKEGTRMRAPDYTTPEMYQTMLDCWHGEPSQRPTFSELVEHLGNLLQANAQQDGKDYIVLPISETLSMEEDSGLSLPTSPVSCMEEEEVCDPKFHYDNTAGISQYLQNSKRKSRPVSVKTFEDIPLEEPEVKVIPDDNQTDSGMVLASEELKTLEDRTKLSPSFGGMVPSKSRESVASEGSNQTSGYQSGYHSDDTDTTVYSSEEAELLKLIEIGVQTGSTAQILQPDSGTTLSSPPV
Target sequence in this assay (P40337 whole entry): as the sequence (P40337 whole entry partner) above

[8] = biological target: T2, von Hippel-Lindau disease tumor suppressor/Serine/threonine-protein kinase B-raf (Homo sapiens); assay: Protac activity at E3 ubiquitin ligase/BRAF in human U87 cells assessed as degradation of BRAF protein; type: cell-based
EA.hy 926 [9] = assay: Induction of apoptosis in human EA.hy 926 cells at 0.1 to 40 uM incubated for 72 hrs by annexin-V/PI staining based flow cytometry analysis; type: functional, cell-based; settings: dose 0.1-40 µM
EA.hy 926 [10] = assay: Induction of apoptosis in human EA.hy 926 cells assessed as late apoptotic cells at 20 uM incubated for 72 hrs by annexin-V/PI staining based flow cytometry analysis (reference value: 3.07%); type: functional
EA.hy 926 [11] = assay: Induction of apoptosis in human EA.hy 926 cells assessed as viable cells at 10 uM incubated for 72 hrs by annexin-V/PI staining based flow cytometry analysis (reference value: 93.8%); type: functional; settings: read-out: Activity
[12] = biological target: T1, von Hippel-Lindau disease tumor suppressor/Vascular endothelial growth factor receptor 2; assay: Protac activity at VHL E3 ubiquitin ligase/VEGFR-2 in human EA.hy 926 cells assessed as degradation of VEGFR-2 protein preincubated with carfilzomib; type: cell-based
Target sequence in this assay (P35968 20-1356 limits assumed): as the sequence (P35968 20-1356 limits assumed) above
Target sequence in this assay (P40337 whole entry partner): as the sequence (P40337 whole entry partner) above

EA.hy 926 [13] = assay: Induction of apoptosis in human EA.hy 926 cells assessed as early apoptotic cells at 20 uM incubated for 72 hrs by annexin-V/PI staining based flow cytometry analysis (reference value: 0.71%); type: functional
EA.hy 926 [14] = assay: Induction of apoptosis in human EA.hy 926 cells assessed as necrotic cells at 1 uM incubated for 72 hrs by annexin-V/PI staining based flow cytometry analysis (reference value: 2.34%); type: functional
EA.hy 926 [15] = assay: Induction of apoptosis in human EA.hy 926 cells assessed as early apoptotic cells at 10 uM incubated for 72 hrs by annexin-V/PI staining based flow cytometry analysis (reference value: 0.71%); type: functional
EA.hy 926 [16] = assay: Induction of apoptosis in human EA.hy 926 cells assessed as early apoptotic cells at 0.1 uM incubated for 72 hrs by annexin-V/PI staining based flow cytometry analysis (reference value: 0.71%); type: functional
EA.hy 926 [17] = assay: Induction of apoptosis in human EA.hy 926 cells assessed as late apoptotic cells at 10 uM incubated for 72 hrs by annexin-V/PI staining based flow cytometry analysis (reference value: 3.07%); type: functional
EA.hy 926 [18] = assay: Induction of apoptosis in human EA.hy 926 cells assessed as necrotic cells at 0.1 uM incubated for 72 hrs by annexin-V/PI staining based flow cytometry analysis (reference value: 2.34%); type: functional
EA.hy 926 [19] = assay: Induction of apoptosis in human EA.hy 926 cells assessed as viable cells at 1 uM incubated for 72 hrs by annexin-V/PI staining based flow cytometry analysis (reference value: 93.8%); type: functional; settings: read-out: Activity
EA.hy 926 [20] = assay: Induction of apoptosis in human EA.hy 926 cells assessed as viable cells at 40 uM incubated for 72 hrs by annexin-V/PI staining based flow cytometry analysis (reference value: 93.8%); type: functional; settings: read-out: Activity
EA.hy 926 [21] = assay: Induction of apoptosis in human EA.hy 926 cells assessed as necrotic cells at 10 uM incubated for 72 hrs by annexin-V/PI staining based flow cytometry analysis (reference value: 2.34%); type: functional
EA.hy 926 [22] = assay: Induction of apoptosis in human EA.hy 926 cells assessed as late apoptotic cells at 40 uM incubated for 72 hrs by annexin-V/PI staining based flow cytometry analysis (reference value: 3.07%); type: functional
EA.hy 926 [23] = assay: Induction of apoptosis in human EA.hy 926 cells assessed as early apoptotic cells at 40 uM incubated for 72 hrs by annexin-V/PI staining based flow cytometry analysis (reference value: 0.71%); type: functional
EA.hy 926 [24] = assay: Induction of apoptosis in human EA.hy 926 cells assessed as necrotic cells at 20 uM incubated for 72 hrs by annexin-V/PI staining based flow cytometry analysis (reference value: 2.34%); type: functional
EA.hy 926 [25] = assay: Induction of apoptosis in human EA.hy 926 cells assessed as viable cells at 20 uM incubated for 72 hrs by annexin-V/PI staining based flow cytometry analysis (reference value: 93.8%); type: functional; settings: read-out: Activity
EA.hy 926 [26] = assay: Induction of apoptosis in human EA.hy 926 cells assessed as late apoptotic cells at 0.1 uM incubated for 72 hrs by annexin-V/PI staining based flow cytometry analysis (reference value: 3.07%); type: functional
[27] = biological target: T2, von Hippel-Lindau disease tumor suppressor/Serine/threonine-protein kinase B-raf (Homo sapiens); assay: Protac activity at E3 ubiquitin ligase/BRAF in human EA.hy 926 cells assessed as degradation of BRAF protein at 30 uM preincubated with S5 for 2 hrs followed by compound addition and measured after 48 hrs by Western blot analysis; type: cell-based
EA.hy 926 [28] = assay: Induction of apoptosis in human EA.hy 926 cells assessed as early apoptotic cells at 1 uM incubated for 72 hrs by annexin-V/PI staining based flow cytometry analysis (reference value: 0.71%); type: functional
EA.hy 926 [29] = assay: Induction of apoptosis in human EA.hy 926 cells assessed as viable cells at 0.1 uM incubated for 72 hrs by annexin-V/PI staining based flow cytometry analysis (reference value: 93.8%); type: functional; settings: read-out: Activity
[30] = biological target: T1, von Hippel-Lindau disease tumor suppressor/Vascular endothelial growth factor receptor 2; assay: Protac activity at VHL E3 ubiquitin ligase/VEGFR-2 in human EA.hy 926 cells assessed as degradation of VEGFR-2 protein at 10 to 60 uM incubated for 48 hrs by western blot assay; type: cell-based; settings: dose 10-60 µM
Target sequence in this assay (P35968 20-1356 limits assumed): as the sequence (P35968 20-1356 limits assumed) above
Target sequence in this assay (P40337 whole entry partner): as the sequence (P40337 whole entry partner) above

EA.hy 926 [31] = assay: Induction of cell cycle arrest in human EA.hy 926 cells assessed as accumulation of cells at S pahse at 0.1 to 40 uM incubated for 48 hrs by propidium-iodide staining based flow cytometry analysis; type: functional; settings: dose 0.1-40 µM
EA.hy 926 [32] = assay: Induction of apoptosis in human EA.hy 926 cells assessed as late apoptotic cells at 1 uM incubated for 72 hrs by annexin-V/PI staining based flow cytometry analysis (reference value: 3.07%); type: functional
EA.hy 926 [33] = assay: Induction of apoptosis in human EA.hy 926 cells assessed as necrotic cells at 40 uM incubated for 72 hrs by annexin-V/PI staining based flow cytometry analysis (reference value: 2.34%); type: functional
[34] = biological target: T2, von Hippel-Lindau disease tumor suppressor/Serine/threonine-protein kinase B-raf (Homo sapiens); assay: Protac activity at E3 ubiquitin ligase/BRAF in human EA.hy 926 cells assessed as degradation of BRAF protein at 30 uM preincubated with VH032 for 2 hrs followed by compound addition and measured after 48 hrs by Western blot analysis; type: cell-based
[35] = biological target: T2, von Hippel-Lindau disease tumor suppressor/Serine/threonine-protein kinase B-raf (Homo sapiens); assay: Protac activity at E3 ubiquitin ligase/BRAF in human EA.hy 926 cells assessed as degradation of BRAF protein at 40 uM incubated for 4 to 48 hrs by western blot assay; type: cell-based; settings: time 4-48 hrs, TDE = time-dependent effect
[36] = biological target: T2, von Hippel-Lindau disease tumor suppressor/Serine/threonine-protein kinase B-raf (Homo sapiens); assay: Protac activity at E3 ubiquitin ligase/BRAF in human EA.hy 926 cells assessed as degradation of BRAF protein at 40 uM incubated for 4 hrs by western blot assay; type: cell-based
EA.hy 926 [37] = assay: Induction of cell cycle arrest in human EA.hy 926 cells at 0.1 to 40 uM incubated for 48 hrs by propidium-iodide staining based flow cytometry analysis; type: functional; settings: dose 0.1-40 µM
[38] = biological target: T2, von Hippel-Lindau disease tumor suppressor/Serine/threonine-protein kinase B-raf (Homo sapiens); assay: Protac activity at E3 ubiquitin ligase/BRAF in human EA.hy 926 cells assessed as degradation of BRAF protein at 40 uM incubated for 48 hrs by western blot assay; type: cell-based

SMILES: CC(C)C[C@H](NC(=O)[C@H](CCc1ccccc1)NC(=O)CN1CCOCC1)C(=O)N[C@@H](Cc1ccccc1)C(=O)N[C@@H](CC(C)C)C(=O)[C@@]1(C)CO1 [CARFILZOMIB]
- Activity [1]: Active
- Activity (EA.hy 926 [2]): Toxic

SMILES: Cc1ncsc1-c1ccc(CNC(=O)[C@@H]2C[C@@H](O)CN2C(=O)[C@@H](NC(=O)CCCCCC(=O)n2nc(N)c3c(-c4cccc(NC(=O)Nc5cccc(Cl)c5)c4)cccc32)C(C)(C)C)cc1
- Activity (HEK293): Non-Toxic
- IC50 [3]: 20 µM
- Activity (EA.hy 926 [9]): Active
- Activity (EA.hy 926 [10]): 3.93%
- viability at 10 µM (EA.hy 926 [11]): 91.4%
- Activity [12]: inactive
- Activity (EA.hy 926 [13]): 0.86%
- Activity (EA.hy 926 [14]): 2.75%
- Activity (EA.hy 926 [15]): 0.77%
- Activity (EA.hy 926 [16]): 0.57%
- Activity (EA.hy 926 [17]): 2.62%
- Activity (EA.hy 926 [18]): 6.32%
- viability at 1 µM (EA.hy 926 [19]): 93.1%
- viability at 40 µM (EA.hy 926 [20]): 92.2%
- Activity (EA.hy 926 [21]): 5.23%
- Activity (EA.hy 926 [22]): 2.62%
- IC50 (A549): > 100 µM
- Activity (EA.hy 926 [23]): 1.44%
- Activity (EA.hy 926 [24]): 7.08%
- viability at 20 µM (EA.hy 926 [25]): 88.1%
- IC50 (MDA-MB-453): > 100 µM
- Activity (EA.hy 926 [26]): 1.77%
- Activity [27]: inactive
- Activity [6]: Active
- IC50 [7]: 0.0422 µM
- Activity (EA.hy 926 [28]): 0.96%
- viability at 0.1 µM (EA.hy 926 [29]): 91.3%
- Activity [30]: Active
- Activity (EA.hy 926 [31]): Active
- Activity (EA.hy 926 [32]): 3.2%
- Activity (EA.hy 926 [33]): 3.7%
- Activity [34]: inactive

SMILES: Cc1ncsc1-c1ccc(CNC(=O)[C@@H]2C[C@@H](O)CN2C(=O)[C@@H](NC(=O)CCCCCCCCCCC(=O)n2nc(N)c3c(-c4cccc(NC(=O)Nc5cccc(Cl)c5)c4)cccc32)C(C)(C)C)cc1
- Activity (HEK293): Non-Toxic
- IC50 [3]: 21 µM
- Activity (EA.hy 926 [9]): Active
- Activity [35]: Tde
- Activity [36]: Active
- IC50 (A549): > 100 µM
- IC50 (MDA-MB-453): > 100 µM
- Activity [6]: Active
- IC50 [7]: 0.00707 µM
- Activity (EA.hy 926 [37]): inactive
- Activity [30]: Active
- Activity [38]: Active

The next lines start with results.

- Activity [4]: inactive
- IC50 (A549): > 100 µM
- IC50 (MDA-MB-453): > 100 µM
- Activity [5]: Active
- Activity [6]: Dose-Dependent Effect
- IC50 [7]: 0.00212 µM
- Activity [8]: Active
SMILES: Cc1ncsc1-c1ccc(CNC(=O)[C@@H]2C[C@@H](O)CN2C(=O)[C@@H](NC(=O)CCCCCCCCCCCCCCC(=O)n2nc(N)c3c(-c4cccc(NC(=O)Nc5cccc(Cl)c5)c4)cccc32)C(C)(C)C)cc1
- Activity (HEK293): Non-Toxic
- IC50 [3]: 28.5 µM

- IC50 (A549): 15.8 µM
- IC50 (MDA-MB-453): > 100 µM
SMILES: Nc1n[nH]c2cccc(-c3cccc(NC(=O)Nc4cccc(Cl)c4)c3)c12
- Activity (HEK293): Non-Toxic
- IC50 [3]: 7.33 µM
